Laboratory results taken from the CheMixHub ionic liquid set.

Experiment: xn = mol fraction of the nth substance listed

CCOS(=O)(=O)[O-].CC[n+]1ccn(C)c1 + CC[n+]1ccn(C)c1.O=S(=O)([N-]S(=O)(=O)C(F)(F)F)C(F)(F)F
Conditions	viscosity [mPa·s]
298.15 K, 100 kPa, x2 = 0	100.6

C[NH+](C)C.O=S(=O)([N-]S(=O)(=O)C(F)(F)F)C(F)(F)F + CC#N
101 kPa
Conditions	electrical conductivity [S/m]
298.15 K, x2 = 0.66	4.82
303.15 K, x2 = 0.86	6.87

C[NH+](C)C.O=S(=O)([N-]S(=O)(=O)C(F)(F)F)C(F)(F)F + N#CCCCC#N
101 kPa, x1 = 0.2167
Conditions	viscosity [mPa·s]
288 K	15.76
298 K	11.43
318 K	6.747
353 K	3.452

CC[n+]1ccn(C)c1.F[P-](F)(F)(F)(F)F + O
viscosity [mPa·s], 100 kPa
Conditions	298.15 K	303.15 K	308.15 K
x1 = 1.802e-05	0.919	0.85	0.777
x1 = 5.406e-05	0.933	0.855	0.782
x1 = 9.009e-05	0.948	0.86	0.787

CCCC[N+](CCCC)(CCCC)CCCC.O=S(=O)([O-])O + Cc1ncc(C[n+]2csc(CCO)c2C)c(N)n1.Cl.[Cl-] + O
viscosity [mPa·s], 101 kPa
Conditions	298.15 K	308.15 K	318.15 K
x2 = 0.0003644, x1 = 0.0003601	0.9075	0.7352	0.6088
x2 = 0.0003645, x1 = 9.006e-05	0.9037	0.7314	0.605
x2 = 0.000365, x1 = 0.0001801	0.905	0.7327	0.6062
x2 = 0.0003656, x1 = 0.0002701	0.9062	0.7339	0.6075
x2 = 0.0006576, x1 = 0.0001801	0.9165	0.7418	0.6142
x2 = 0.0006584, x1 = 9.003e-05	0.9153	0.7406	0.6129
x2 = 0.0006587, x1 = 0.00027	0.918	0.7431	0.615
x2 = 0.0006597, x1 = 0.00036	0.919	0.7443	0.6167
x2 = 0.0009539, x1 = 9.001e-05	0.9257	0.7497	0.6208
x2 = 0.0009554, x1 = 0.00018	0.93	0.751	0.62
x2 = 0.0009567, x1 = 0.0003599	0.9295	0.7535	0.6246
x2 = 0.0009569, x1 = 0.00027	0.9283	0.7522	0.6234
x2 = 0.001253, x1 = 8.998e-05	0.9373	0.7589	0.6288
x2 = 0.001255, x1 = 0.0001799	0.9386	0.7602	0.63
x2 = 0.001255, x1 = 0.0002699	0.9398	0.7614	0.6313
x2 = 0.001257, x1 = 0.0003598	0.9411	0.7626	0.6326
x2 = 0.001555, x1 = 8.995e-05	0.9478	0.7692	0.6355
x2 = 0.001556, x1 = 0.0001799	0.9491	0.7705	0.6368
x2 = 0.001558, x1 = 0.0002698	0.95	0.7717	0.64
x2 = 0.001561, x1 = 0.0003597	0.9516	0.773	0.6393
x2 = 0.001859, x1 = 8.992e-05	0.9569	0.7784	0.6425
x2 = 0.00186, x1 = 0.0001798	0.9582	0.7797	0.6438
x2 = 0.001863, x1 = 0.0002697	0.9594	0.7809	0.6451
x2 = 0.001866, x1 = 0.0003596	0.9607	0.7822	0.6464

C[NH+](C)C.O=S(=O)([N-]S(=O)(=O)C(F)(F)F)C(F)(F)F + O=C1CCCO1
101 kPa
Conditions	electrical conductivity [S/m]	viscosity [mPa·s]
298.15 K, x1 = 0.0005	0.043	–
298.15 K, x1 = 0.0008	0.059	–
298.15 K, x2 = 0.5239	1.89	–
303.15 K, x2 = 0.8088	–	3.08
303.15 K, x2 = 0.8803	–	2.34
313.15 K, x2 = 0.672	–	3.62
313.15 K, x2 = 0.8803	–	1.86
333.15 K, x2 = 0.7428	–	1.87
343.15 K, x2 = 0.8803	–	0.98

CC[n+]1ccn(CCOC)c1.N#C[S-] + CC(C)O
viscosity [mPa·s], 100 kPa
Conditions	x1 = 0.1	x1 = 0.1998	x1 = 0.3234	x1 = 0.3998	x1 = 0.5003	x1 = 0.6	x1 = 0.697	x1 = 0.8002	x1 = 0.8991	x1 = 1
288.15 K	4.25	6.2	10.24	15.05	19.9	28.1	38.6	54.1	72.5	93.1
293.15 K	3.66	5.32	8.77	12.96	16.8	23	31.1	42.7	56.8	70.8
298.15 K	3.18	4.62	7.6	11.21	14.12	19.3	25.7	34.4	45	55.8
303.15 K	2.79	4.05	6.64	9.42	11.99	16.48	21.6	28.2	36.3	44.3
308.15 K	2.45	3.58	5.82	8.25	10.28	14.1	18.7	23.5	29.9	36
313.15 K	2.17	3.18	5.17	7.23	8.91	12.18	15.97	19.8	24.9	29.7
318.15 K	1.93	2.84	4.6	6.27	7.78	10.62	13.55	17.18	21.1	24.9

CCOS(=O)(=O)[O-].CC[n+]1ccn(C)c1 + CC(=O)c1ccccc1
100 kPa, x2 = 0
Conditions	viscosity [mPa·s]
313.15 K	40
333.15 K	20.4

COCCOC + CCCC[n+]1ccn(C)c1.O=S(=O)([N-]S(=O)(=O)C(F)(F)F)C(F)(F)F
Conditions	electrical conductivity [S/m]
294.5 K, 100 kPa, x2 = 0.02332	0.62

CCCC[n+]1ccn(C)c1C.F[B-](F)(F)F + CC[N+](C)(CC)CCOC.F[B-](F)(F)F
100 kPa, x2 = 0
Conditions	electrical conductivity [S/m]
333.15 K	0.335
338.15 K	0.447
343.15 K	0.53
348.15 K	0.63
